Source: patent US20080248002A1, “ANTI-ANGIOGENIC CELLULAR AGENT FOR CANCER THERAPY” (priority 1999, published 2008)

Legend:
EC targets = test: BFA / conA treatment of CIK effector cells, lysis of EC targets; type: cell-based, human; settings: day 21 CIK effector cells pre-incubated 2 hours with 1 μM BFA or 0.1 μM conA
Protocol: (§1) Brefeldin A (BFA) blocks the transport of FasL from intracellular stores to the cell surface (Lippincott-Schwartz et al. (1989) Cell 56:801; Lippincott-Schwartz et al. (1990) Cell 60:821; and Orci et al. (1991) Cell 64:1183). […] BFA was dissolved at 100 μg/ml in 70% ethanol and used fresh or stored up to 4 weeks at −20° C. Prior to cytotoxicity assays, the cells were rinsed three times with PBS and BFA-free fresh medium was added.
(§2) Concanamycin A (conA) depletes perforin contained in cytotoxic T-cell granules (Kataoka et al. (1996) J. Immunol. 156:3678; Ohminami et al. (1999) Blood 93:925). 15 ConA-treated effector cells were used in cytotoxicity assays to approximate the fractional contribution of the perforin/granzyme pathway to the total CIK cell mediated cytotoxicity.
(§3) Louis, Mo.). The cells were then incubated for 2 hours at 37° C. in a humidified atmosphere of 5% CO2.
(§4) BFA treatment of effector cells and the associated block of FasL transport reduced CIK lysis of the tumor target OCI-Ly8 by 33%, but had no effect on the lysis of EC targets (FIG. 4).

OCI-Ly8 = test: BFA / conA treatment of CIK effector cells, lysis of OCI-Ly8; type: cell-based; settings: day 21 CIK effector cells pre-incubated 2 hours with 1 μM BFA or 0.1 μM conA
Protocol: as §1, §2, §3, §4

[1] = system: lymphoblastoid target AMK; test: BFA / TM pre-treatment of CIK targets, 51Cr release assay, lymphoblastoid target AMK; type: cell-based; settings: target pre-treatment (TM 22 hr), 20:1 E:T ratio
Protocol: (§5) CIK targets were treated with BFA and/or tunicamycin (TM). […] This resistance is sustained after BFA is removed from the media.

EC = test: BFA pre-treatment of CIK targets, 51Cr release assay, EC; type: cell-based; settings: targets pre-treated with 10 μM BFA, 20:1 E:T ratio
Protocol: as §5

OCI-Ly8 tumor targets = test: BFA / TM pre-treatment of CIK targets, 51Cr release assay, OCI-Ly8 tumor targets; type: cell-based; settings: 20:1 E:T ratio
Protocol: as §5

Compound	effect on CIK lysis of EC targets (EC targets)	reduction of CIK lysis of OCI-Ly8 (OCI-Ly8)	effect of target pre-treatment on CIK killing of lymphoblastoid targets [1]	protection of EC from CIK mediated lysis (EC)	effect of target pre-treatment on CIK killing of tumor targets (OCI-Ly8 tumor targets)
C/C=C/[C@H]1O[C@@](O)([C@@H](C)[C@H](O)[C@H](C)[C@H]2OC(=O)/C(OC)=C/C(C)=C/[C@@H](C)[C@@H](O)[C@@H](CC)[C@@H](O)[C@H](C)C/C(C)=C/C=C/[C@@H]2OC)C[C@@H](O[C@H]2C[C@@H](O)[C@H](OC(N)=O)[C@@H](C)O2)[C@@H]1C [Con A, Concanamycin A]	completely abolished EC lysis	66%	–	–	–
C[C@H]1CCC/C=C/[C@@H]2C[C@H](O)C[C@H]2[C@H](O)/C=C/C(=O)O1 [BFA, Brefeldin A]	no effect	33%	did not reduce killing	complete protection	did not reduce killing
tunicamycin [TM]	–	–	rendered susceptible	–	Neither TM or TM and BFA together altered CIK mediated lysis
